What was measured:
Format in all cases: physicochemical
[1] = Transmittance at 450 nm of the color filter; conditions: negative-working colored resist, 1.0 μm film; transmittance at λmax normalized to 2%
[2] = Light-fastness of coating film (color difference ΔEab before and after xenon lamp irradiation); conditions: xenon lamp 20,000 luxes for 10 hours (200,000 lux·h)
Procedure, shortened: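 Coated glass substrate bearing the colored resin film was exposed to a xenon lamp at 20,000 lux for 10 hours (200,000 lux·h); color difference ΔEab before vs after exposure was measured. Graded A (ΔEab <6), B (6–10), C (>10); lower ΔEab means better light-fastness.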

[3] = Heat resistance of coating film (color difference ΔEab before and after heating); conditions: 100° C. for 1 hour on hot plate
Procedure, shortened: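 Glass substrate coated with the colored resin composition undercoat was heated on a hot plate at 100 °C for 1 h. Color difference ΔEab before versus after heating measured spectrophotometrically and graded: A <6, B 6–10, C >10.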

[4] = Absorption spectrum in ethyl acetate solution (spectrophotometer UV-2400PC)
Procedure, shortened: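 Compounds dissolved in ethyl acetate and scanned on a UV-2400PC spectrophotometer to obtain λmax and molar absorption coefficient (ε). Absorbance at 450 nm reported after normalizing absorbance at λmax to 1.0.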

[5] = Storage stability of colored resist solution (precipitation after one month at room temperature); parameters: key: A: No precipitation was observed; B: Slight precipitation was observed; C: Precipitation was observed; conditions: negative-working colored resist solution, visual precipitation
Procedure, shortened: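 The resist solution was mixed with dipyrromethene complex dye Ia-12 to give a negative-working UV-curable colored composition. It was stored for one month at room temperature and precipitation was visually graded: A none, B slight, C observed.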

| Compound | Light-fastness [2] | Heat resistance [3] | maximum absorption wavelength (λmax) [4] [nm] | molar absorption coefficient (ε) [4] | Abs value at 450 nm when normalized to Abs = 1.0 at λmax [4] | Storage stability [5] | Transmittance at 450 nm [1] |
| --- | --- | --- | --- | --- | --- | --- | --- |
| CC1CC(C(C)(C)C)C(OC(=O)c2c(-c3ccccc3)c(C=C3N=C(NC(=O)CCCSc4cc(C(=O)O)cc(C(=O)O)c4)C(C#N)=C3c3ccccc3)[n]([Zn][OH])c2NC(=O)c2cc(F)cc(F)c2F)C(C(C)(C)C)C1 (centres unmarked) [Ib-59] | A (ΔEab value was less than 6) | A (ΔEab value was less than 6) | 559 | 93,900 | 0.0083 | A | A (Transmittance at 450 nm was 90% or more) |
| CC(=O)NC1=[N+]2C(=Cc3c(-c4ccccc4)c(C(=O)OC4C(C(C)(C)C)CC(C)CC4C(C)(C)C)c(NC(=O)c4cc(F)c(F)c(F)c4)[n]3[Zn-]2[OH])C(c2ccccc2)=C1C#N (centres unmarked) [Ib-61] | A (ΔEab value was less than 6) | A (ΔEab value was less than 6) | 558 | 89,100 | 0.0101 | A | A (Transmittance at 450 nm was 90% or more) |
| CC1CC(C(C)(C)C)C(OC(=O)c2c(-c3ccccc3)c(C=C3N=C(NC(=O)C(C)(C)C)C(C#N)=C3c3ccccc3)[n]([Zn][OH])c2NC(=O)c2c(F)c(F)c(C(=O)O)c(F)c2F)C(C(C)(C)C)C1 (centres unmarked) [Ib-69] | A (ΔEab value was less than 6) | A (ΔEab value was less than 6) | 557 | 99,200 | 0.0111 | A | A (Transmittance at 450 nm was 90% or more) |

Second part, led by results:

| Light-fastness [2] | Heat resistance [3] | maximum absorption wavelength (λmax) [4] [nm] | molar absorption coefficient (ε) [4] | Abs value at 450 nm when normalized to Abs = 1.0 at λmax [4] | Storage stability [5] | Compound | Transmittance at 450 nm [1] |
| --- | --- | --- | --- | --- | --- | --- | --- |
| A (ΔEab value was less than 6) | A (ΔEab value was less than 6) | 563 | 100,500 | 0.0082 | A | CC1CC(C(C)(C)C)C(OC(=O)c2c(-c3ccccc3)c3[n](c2NC(=O)c2ccc(F)c(Br)c2)[Zn-]([OH])[N+]2=C(NC(=O)C(C)Sc4cc(C(=O)O)cc(C(=O)O)c4)C(C#N)=C(c4ccccc4)C2=C3)C(C(C)(C)C)C1 (centres unmarked) [Ib-53] | A (Transmittance at 450 nm was 90% or more) |
| A (ΔEab value was less than 6) | A (ΔEab value was less than 6) | 564 | 106,400 | 0.0099 | A | CC1CC(C(C)(C)C)C(OC(=O)c2c(-c3ccccc3)c3[n](c2NC(=O)c2c(F)c(F)c(F)c(F)c2F)[Zn-]([OH])[N+]2=C(NC(=O)C(C)Sc4cc(C(=O)O)cc(C(=O)O)c4)C(C#N)=C(c4ccccc4)C2=C3)C(C(C)(C)C)C1 (centres unmarked) [Ib-75] | A (Transmittance at 450 nm was 90% or more) |

Source: patent US8343696B2, “Colored curable composition, fluorine-containing dipyrromethene compound and tautomer thereof, and fluorine-containing dipyrromethene metal complex and tautomer thereof, and color filter using the same and method for producing the color filter” (FUJIFILM Corporation, priority 2008, dated 2013)
